Results taken from patent publication US10196391B2 (Hoffmann-La Roche Inc., priority 2014, dated 2019).
Where two headings read alike, the source gives them in different places.

Test system: HBsAg
Test: HBsAg assay (CLIA) in HepG2.2.15 cells
Format: cell-based, HBV
Protocol: HepG2.2.15 cells (Acs et al. Proc Natl Acad Sci USA, 84, (1987), 4641-4), a constitutively HBV-expressing cell line were cultured in DMEM+Glutamax-I medium (Invitrogen, Carlsbad, Calif., USA), supplemented with 10% fetal bovine serum (Invitrogen) and G418 (Invitrogen) at a final concentration of 200 mg/L and maintained in 5% CO2 at 37° C.
HepG2.2.15 cells were seeded in duplicate into white, 96-well plates at 1.5×10^4 cells/well. The cells were treated with a three-fold serial dilution series of the compounds in DMSO. The final DMSO concentration in all wells was 1% and DMSO was used as no drug control.
The HBsAg chemiluminescence immunoassay (CLIA) kit (Autobio Diagnostics Co., Zhengzhou, China, Catalog number: CL0310-2) was used to measure the levels of secreted HBV antigens semi-quantitatively. For the detection 50 μL/well culture supernatant was used and HBsAg was quantified using HBsAg chemiluminescence immunoassay (CLIA) kit (Autobio Diagnostics Co., Zhengzhou, China, Catalog number: CL0310-2), 50 μL of the supernatant was transferred to the CLIA assay plate and 50 μL of enzyme conjugate reagent was added into each well. The plates were sealed and gently agitated for 1 hour at room temperature. The supernatant-enzyme-mixture was discarded and wells were washed 6 times with 300 μL of PBS. The residual liquid was removed by plating the CLIA plate […] on absorbent tissue paper. 25 μL of substrates A and B were added to each well. Luminance was measured using a luminometer (Mithras LB 940 Multimode Microplate Reader) after 10 minutes incubation. Dose-response curves were generated and the IC50 value was extrapolated by using the E-WorkBook Suite (ID Business Solutions Ltd., Guildford, UK). The IC50 was defined as the compound concentration (or conditioned media log dilution) at which HBsAg secretion was reduced by 50% compared to the no drug control.
The compounds according to formula I were tested for their capacity to inhibit HBsAg as described herein.

[1] = Hepatitis B virus, HepG2.2.15, read-out: IC50 (HBsAg assay)

CNC(=O)c1cc(F)cc(N2CCc3nc(-c4ncccn4)ncc3C2)c1 [Example 103, 3-fluoro-N-methyl-5-(2-pyrimidin-2-yl-7,8-dihydro-5H-pyrido[4,3-d]pyrimidin-6-yl)benzamide]
IC50 [1]: 2770 nM

2,3-difluoro-5-[2-(2-pyridyl)-7,8-dihydro-5H-pyrido[4,3-d]pyrimidin-6-yl]phenol [Example 18]
IC50 (HepG2.2.15 cells, secreted HBsAg, CLIA, read-out: IC50 (HBsAg assay)): 22000 nM

c1ccc(-c2ncc3c(n2)CCN(c2ccccn2)C3)nc1 [Example 35, 2,6-bis(2-pyridyl)-7,8-dihydro-5H-pyrido[4,3-d]pyrimidine]
IC50 [1]: 8220 nM

Clc1cc(N2CCc3nc(-c4ncccn4)ncc3C2)cc(Cl)n1 [Example 114, 6-(2,6-dichloro-4-pyridyl)-2-pyrimidin-2-yl-7,8-dihydro-5H-pyrido[4,3-d]pyrimidine]
IC50 [1]: 1170 nM

N#Cc1cc(F)cc(N2CCc3nc(-c4ncccn4)ncc3C2)c1 [Example 101, 3-fluoro-5-(2-pyrimidin-2-yl-7,8-dihydro-5H-pyrido[4,3-d]pyrimidin-6-yl)benzonitrile]
IC50 [1]: 674 nM

Fc1ccc(N2CCc3nc(-c4ccccn4)ncc3C2)c(OCc2ccccc2)c1 [Example 38, 6-(2-benzyloxy-4-fluoro-phenyl)-2-(2-pyridyl)-7,8-dihydro-5H-pyrido[4,3-d]pyrimidine]
IC50 [1]: 17700 nM

Fc1cc(C2CC2)cc(N2CCc3nc(-c4ncccn4)ncc3C2)c1 [Example 42, 6-(3-cyclopropyl-5-fluoro-phenyl)-2-pyrimidin-2-yl-7,8-dihydro-5H-pyrido[4,3-d]pyrimidine]
IC50 [1]: 566 nM

COc1cccc(N2CCc3nc(-c4ccccn4)ncc3C2)c1 [Example 92, 6-(3-methoxyphenyl)-2-(2-pyridyl)-7,8-dihydro-5H-pyrido[4,3-d]pyrimidine]
IC50 [1]: 2890 nM

COCCOc1ccc(N2CCc3nc(-c4ccccn4)ncc3C2)cc1OC [Example 57, 6-[3-methoxy-4-(2-methoxyethoxy)phenyl]-2-(2-pyridyl)-7,8-dihydro-5H-pyrido[4,3-d]pyrimidine]
IC50 [1]: 2170 nM

O=S(=O)(c1ccc(N2CCc3nc(-c4ccccn4)ncc3C2)cc1)C(F)(F)F [Example 12, 2-(2-pyridyl)-6-[4-(trifluoromethylsulfonyl)phenyl]-7,8-dihydro-5H-pyrido[4,3-d]pyrimidine]
IC50 [1]: 13300 nM

COc1cc(Cl)cc(N2CCc3nc(-c4ncccn4)ncc3C2)c1 [Example 98, 6-(3-chloro-5-methoxy-phenyl)-2-pyrimidin-2-yl-7,8-dihydro-5H-pyrido[4,3-d]pyrimidine]
IC50 [1]: 268 nM

COCCCOc1ccc(N2CCc3nc(-c4ccccn4)ncc3C2)cc1F [Example 56, 6-[3-fluoro-4-(3-methoxypropoxy)phenyl]-2-(2-pyridyl)-7,8-dihydro-5H-pyrido[4,3-d]pyrimidine]
IC50 [1]: 1840 nM

Fc1cc(N2CCc3nc(-c4ccccn4)ncc3C2)ccc1OCc1ccccc1 [Example 53, 6-(4-benzyloxy-3-fluoro-phenyl)-2-(2-pyridyl)-7,8-dihydro-5H-pyrido[4,3-d]pyrimidine]
IC50 [1]: 1560 nM

COc1ccc(-c2ncc3c(n2)CCN(c2ccc(S(C)(=O)=O)cc2)C3)nc1 [Example 5, 2-(5-methoxy-2-pyridyl)-6-(4-methylsulfonylphenyl)-7,8-dihydro-5H-pyrido[4,3-d]pyrimidine]
IC50 [1]: 42100 nM

COc1ccnc(-c2ncc3c(n2)CCN(c2cc(F)c(F)c(OC)c2)C3)c1 [Example 24, 6-(3,4-difluoro-5-methoxy-phenyl)-2-(4-methoxy-2-pyridyl)-7,8-dihydro-5H-pyrido[4,3-d]pyrimidine]
IC50 [1]: 1860 nM

CS(=O)(=O)c1cccc(N2CCc3nc(-c4ccccn4)ncc3C2)c1 [Example 11, 6-(3-methylsulfonylphenyl)-2-(2-pyridyl)-7,8-dihydro-5H-pyrido[4,3-d]pyrimidine]
IC50 [1]: 17400 nM

OCCCOc1cc(N2CCc3nc(-c4ccccn4)ncc3C2)cc(F)c1F [Example 93, 3-[2,3-difluoro-5-[2-(2-pyridyl)-7,8-dihydro-5H-pyrido[4,3-d]pyrimidin-6-yl]phenoxy]propan-1-ol]
IC50 [1]: 314 nM
